What was measured:
Assay type in all cases: in vivo, human
panelists [1] = test: Panel taste test: concentration with cooling intensity similar or slightly higher than menthol at 2 ppm (Table 1); conditions: solution judged to have cooling intensity similar or slightly higher than menthol at 2 ppm; tasted by small panel
panelists [2] = test: Panel taste test: longevity of cooling in the mouth (Table 1); conditions: solutions tasted at the chosen concentration; time until no cooling could be sensed in the mouth
Text: In a second experiment, the same panel was asked to taste the solutions at the chosen concentrations and to record the cooling intensity at regular time intervals until no cooling could be sensed in the mouth.

panelists [3] = test: Testing of compounds: panel tasting of aqueous solutions against menthol at 2 ppm (Table 2); conditions: for Concentration [ppm]: aqueous solution (compound dissolved in ethanol at 1% by weight, then dosed into water), cooling intensity similar to or slightly higher than menthol at 2 ppm; for Description: panel description of the aqueous solution at the concentration listed in Table 2, reference menthol 2 ppm
Text: A small group of panelists were asked to taste various aqueous solutions of compounds. The compounds were first dissolved in ethanol at 1% by weight and then dosed into water.

mouth = test: Application in toothpaste; conditions: toothgel with 2.5 g per 100 g of a 2% solution in PG; teeth brushed, mouth rinsed with water
Text: [table] The materials are mixed in the toothgel, and a panelist's teeth are brushed using this toothgel. The mouth is rinsed with water and the water spit out. […] The cooling perception lasts for several hours.

| SMILES | Concentration [ppm] (panelists [3]) | Description (panelists [3]) | other results |
| --- | --- | --- | --- |
| CCNC(=O)C1CC(C)CCC1C(C)C (centres unmarked) [N-ethyl p-menthanecarboxamide (WS-3), N-ethyl p-menthanecarboxamide, reference compound] |  |  | Concentration (panelists [1]): 1.5 ppm; Longevity (panelists [2]): 57 min |
| CCOC(=O)Cc1ccc(NC(=O)[C@@H]2C[C@H](C)CC[C@H]2C(C)C)cc1 [Example 29, ethyl 2-(4-((1R,2S,5R)-2-isopropyl-5-methylcyclohexane-carboxamido)phenyl)acetate] | 2 ppm | icy, crisp cool on tongue |  |
| CC(C)[C@@H]1CC[C@@H](C)C[C@H]1C(=O)Nc1ccccc1C#N [Example 32] | 2 ppm | mouthcoating, more cooling than menthol |  |
| CC(C)[C@@H]1CC[C@@H](C)C[C@H]1C(=O)NCc1ccc(C(=O)O)cc1 [Example 28, 4-(((1R,2S,5R)-2-isopropyl-5-methyl-cyclohexanecarboxamido)-methyl)benzoic acid] | 2 ppm | strong cooling up front, peppery heat |  |
| CC1CCC(C(C)C)C(C(=O)Nc2ccc(C#N)cc2)C1 (centres unmarked) [Example 3, N-(4-cyanophenyl) p-menthanecarboxamide] |  |  | Concentration (panelists [1]): 0.5 ppm; Longevity (panelists [2]): 90 min |
| CC(C)[C@@H]1CC[C@@H](C)CC1C(=O)Nc1cccc(C#N)c1 (stereo partly drawn) [Example 31, (2S,5R)-N-(3-cyanophenyl)-2-isopropyl-5-methylcyclohexane-carboxamide] | 1 ppm | weak cooling, tingling, numbing on tongue, |  |
| CC(C)[C@@H]1CC[C@@H](C)C[C@H]1C(=O)Nc1ccccc1C#N [Example 30, (1R,2S,5R)-N-(2-cyanophenyl)-2-isopropyl-5-methylcyclohexane-carboxamide] | 2 ppm | clean, slightly stronger than menthol |  |
| CC(C)[C@@H]1CC[C@@H](C)C[C@H]1C(=O)Nc1ccc(C=O)cc1 [Example 19, (1R,2S,5R)-N-(4-formylphenyl)-2-isopropyl-5-methylcyclo-hexanecarboxamide] | 2 ppm | cooling builds and lingers |  |
| CCOC(=O)c1ccc(NC(=O)[C@@H]2C[C@H](C)CC[C@H]2C(C)C)cc1 [Example 16, ethyl 4-((1R,2S,5R)-2-isopropyl-5-methylcyclohexane-carboxamido)benzoate] | 2 ppm | Cooling similar to menthol |  |
| CC1CCC(C(C)C)C(C(=O)Nc2ccc(S(N)(=O)=O)cc2)C1 (centres unmarked) [Example 2, N-(4-sulfamoylphenyl) p-menthanecarboxamide] |  |  | Cooling sensation felt in the mouth (mouth): intense cooling sensation; Duration of cooling perception (mouth): several hours |
| COC(=O)c1ccc(NC(=O)[C@@H]2C[C@H](C)CC[C@H]2C(C)C)cc1 [Example 15, methyl 4-((1R,2S,5R)-2-isopropyl-5-methylcyclohexane-carboxamido)benzoate] | 2 ppm | slightly cooling, flat cooling |  |
| CC(C)Oc1ccc(CNC(=O)[C@@H]2C[C@H](C)CC[C@H]2C(C)C)cc1 [Example 7, (1R,2S,5R)-N-(4-isopropoxybenzyl)-2-isopropyl-5-methylcyclohexanecarboxamide] | 0.01 ppm |  |  |
| CC1CCC(C(C)C)C(C(=O)Nc2ccc(CC#N)cc2)C1 (centres unmarked) [Example 1, N-(4-cyanomethylphenyl) p-menthanecarboxamide] |  |  | Concentration (panelists [1]): 0.2 ppm; Longevity (panelists [2]): 93 min |
| CC(C)[C@@H]1CC[C@@H](C)C[C@H]1C(=O)Nc1ccc(C(=O)O)cc1 [Example 23, 4-((1R,2S,5R)-2-isopropyl-5-methylcyclohexane-carboxamido)benzoic acid] | 2 ppm | slightly burning then cooling |  |
| COC(=O)c1ccc(NC(=O)[C@@H]2C[C@H](C)CC[C@H]2C(C)C)cc1OC [Example 9, methyl 4-((1R,2S,5R)-2-isopropyl-5-methylcyclohexane-carboxamido)-2-methoxybenzoate] | 0.005 ppm |  |  |
| CC(C)[C@@H]1CC[C@@H](C)C[C@H]1C(=O)NCc1ccc(C#N)cc1 [Example 25, (1R,2S,5R)-N-(4-cyanobenzyl)-2-isopropyl-5-methylcyclohexanecarboxamide] | 2 ppm | good icy cooling, slightly astringent |  |
| CC(C)[C@@H]1CC[C@@H](C)C[C@H]1O [Example 1-Menthol, (1R, 2S, 5R)-2-isopropyl-5-methyl-cyclohexanol, reference compound] |  |  | Concentration (panelists [1]): 2.0 ppm; Longevity (panelists [2]): 35 min |
| CC(C)[C@@H]1CC[C@@H](C)C[C@H]1C(=O)NCc1ccc(C(=O)O)cc1 [Example 24, 4-(((1R,2S,5R)-2-isopropyl-5-methylcyclohexane-carboxamido)methyl)benzoic acid] | 2 ppm | little cooling, slightly refreshing |  |
| CC(C)[C@@H]1CC[C@@H](C)C[C@H]1C(=O)NCc1ccc(S(N)(=O)=O)cc1 [Example 27, (1R,2S,5R)-2-isopropyl-5-methyl-N-(4-sulfamoylbenzyl)-cyclohexanecarboxamide] | 2 ppm |  |  |

Source: patent publication US20080300314A1, “Cooling Compounds” (Givaudan SA, priority 2003, published 2008)
